Assay results taken from US11654136B2, “Phosphoinositide 3-kinase inhibitor with a zinc binding moiety” (Curis, Inc., priority 2011, dated 2023).

How the values were obtained:
Type in all cases: cell-based
WiDr = assay: Cell proliferation assay WiDr; conditions: Homo sapiens, Colon, 72 hours, read-out: IC50 antiproliferative activity
Method: (§1) Growth inhibition was accessed by adenosine triphosphate (ATP) content assay using Promega CellTiter-Glo kit. Promega CellTiter-Glo kit is an ATP monitoring system based on firefly luciferase. Briefly, 16 μl of mammalian cell lysis and substrate solution was added to 84 µl of culture medium per well to lyse the cells and stabilize the ATP. The mixture was shaken and incubated for 30 minutes and subsequently the luminescence was measured. IC50 values were calculated using PRISM software (GraphPad Software) with sigmoidal dose-response curve fitting.

SW403 = assay: Cell proliferation assay SW403; conditions: Homo sapiens, SW-403, Colon, 72 hours, read-out: IC50 antiproliferative activity
Method: as §1

SW620 = assay: Cell proliferation assay SW620; conditions: Homo sapiens, SW-620, Colon, 72 hours, read-out: IC50 antiproliferative activity
Method: as §1

SWI-116 = assay: Cell proliferation assay SWI-116; conditions: Homo sapiens, Colon, 72 hours, read-out: IC50 antiproliferative activity
Method: as §1

T-84 = assay: Cell proliferation assay T-84; conditions: Homo sapiens, T84, Colon, 72 hours, read-out: IC50 antiproliferative activity
Method: as §1

H358 = assay: Cell proliferation assay H358; conditions: Homo sapiens, NCI-H358, NSCLC, 72 hours, read-out: IC50 antiproliferative activity
Method: as §1

H2122 = assay: Cell proliferation assay H2122; conditions: Homo sapiens, NCI-H2122, NSCLC, 72 hours, read-out: IC50 antiproliferative activity
Method: as §1

H460 = assay: Cell proliferation assay H460; conditions: Homo sapiens, NCI-H460, NSCLC, 72 hours, read-out: IC50 antiproliferative activity
Method: as §1

A549 = assay: Cell proliferation assay A549; conditions: Homo sapiens, NSCLC, 72 hours, read-out: IC50 antiproliferative activity
Method: as §1

Calu6 = assay: Cell proliferation assay Calu6; conditions: Homo sapiens, Calu-6, NSCLC, 72 hours, read-out: IC50 antiproliferative activity
Method: as §1

MiaPaca2 = assay: Cell proliferation assay MiaPaca2; conditions: Homo sapiens, MIA PaCa-2, Pancreas, 72 hours, read-out: IC50 antiproliferative activity
Method: as §1

CaPan2 = assay: Cell proliferation assay CaPan2; conditions: Homo sapiens, Capan-2, Pancreas, 72 hours, read-out: IC50 antiproliferative activity
Method: as §1

CFPAC-1 = assay: Cell proliferation assay CFPAC-1; conditions: Homo sapiens, Pancreas, 72 hours, read-out: IC50 antiproliferative activity
Method: as §1

PANC-1 = assay: Cell proliferation assay PANC-1; conditions: Homo sapiens, Pancreas, 72 hours, read-out: IC50 antiproliferative activity
Method: as §1

SW1990 = assay: Cell proliferation assay SW1990; conditions: Homo sapiens, Pancreas, 72 hours, read-out: IC50 antiproliferative activity
Method: as §1

HCC1806 = assay: Cell proliferation assay HCC1806; conditions: Homo sapiens, Breast, 72 hours, read-out: IC50 antiproliferative activity
Method: as §1

MDA-MB-231 = assay: Cell proliferation assay MDA-MB-231; conditions: Homo sapiens, Breast, 72 hours, read-out: IC50 antiproliferative activity
Method: as §1

MDA-MB-361 = assay: Cell proliferation assay MDA-MB-361; conditions: Homo sapiens, Breast, 72 hours, read-out: IC50 antiproliferative activity
Method: as §1

UACC-893 = assay: Cell proliferation assay UACC-893; conditions: Homo sapiens, Breast, 72 hours, read-out: IC50 antiproliferative activity
Method: as §1

MDA-MB-453 = assay: Cell proliferation assay MDA-MB-453; conditions: Homo sapiens, Breast, 72 hours, read-out: IC50 antiproliferative activity
Method: as §1

MCF-7 = assay: Cell proliferation assay MCF-7; conditions: Homo sapiens, MCF7, Breast, 72 hours, read-out: IC50 antiproliferative activity
Method: as §1

T47D = assay: Cell proliferation assay T47D; conditions: Homo sapiens, Breast, 72 hours, read-out: IC50 antiproliferative activity
Method: as §1

ZR-75-1 = assay: Cell proliferation assay ZR-75-1; conditions: Homo sapiens, Breast, 72 hours, read-out: IC50 antiproliferative activity
Method: as §1

MDA-MB-468 = assay: Cell proliferation assay MDA-MB-468; conditions: Homo sapiens, Breast, 72 hours, read-out: IC50 antiproliferative activity
Method: as §1

HL-60 = assay: Cell proliferation assay HL-60; conditions: Homo sapiens, AML, 72 hours, read-out: IC50 antiproliferative activity
Method: as §1

U937 = assay: Cell proliferation assay U937; conditions: Homo sapiens, U-937, AML, 72 hours, read-out: IC50 antiproliferative activity
Method: as §1

THP-1 = assay: Cell proliferation assay THP-1; conditions: Homo sapiens, AML, 72 hours, read-out: IC50 antiproliferative activity
Method: as §1

MV-4-11 = assay: Cell proliferation assay MV-4-11; conditions: Homo sapiens, MV4-11, AML, 72 hours, read-out: IC50 antiproliferative activity
Method: as §1

Raji = assay: Cell proliferation assay Raji; conditions: Homo sapiens, B-Cell Lymphoma, 72 hours, read-out: IC50 antiproliferative activity
Method: as §1

DOHH2 = assay: Cell proliferation assay DOHH2; conditions: Homo sapiens, DOHH-2, B-Cell Lymphoma, 72 hours, read-out: IC50 antiproliferative activity
Method: as §1

Su-DHL4 = assay: Cell proliferation assay Su-DHL4; conditions: Homo sapiens, SU-DHL-4, B-Cell Lymphoma, 72 hours, read-out: IC50 antiproliferative activity
Method: as §1

Daudi = assay: Cell proliferation assay Daudi; conditions: Homo sapiens, B-Cell Lymphoma, 72 hours, read-out: IC50 antiproliferative activity
Method: as §1

HH = assay: Cell proliferation assay HH; conditions: Homo sapiens, T-Cell Lymphoma, 72 hours, read-out: IC50 antiproliferative activity
Method: as §1

MJ = assay: Cell proliferation assay MJ; conditions: Homo sapiens, T-Cell Lymphoma, 72 hours, read-out: IC50 antiproliferative activity
Method: as §1

K562 = assay: Cell proliferation assay K562; conditions: Homo sapiens, CML, 72 hours, read-out: IC50 antiproliferative activity
Method: as §1

RPMI-8226 = assay: Cell proliferation assay RPMI-8226; conditions: Homo sapiens, Multiple Myeloma, 72 hours, read-out: IC50 antiproliferative activity
Method: as §1

OPM-2 = assay: Cell proliferation assay OPM-2; conditions: Homo sapiens, Multiple Myeloma, 72 hours, read-out: IC50 antiproliferative activity
Method: as §1

ARH77 = assay: Cell proliferation assay ARH77; conditions: Homo sapiens, ARH-77, Multiple Myeloma, 72 hours, read-out: IC50 antiproliferative activity
Method: as §1

Compound	IC50 (WiDr) [nM]	IC50 (SW403) [nM]	IC50 (SW620) [nM]	IC50 (SWI-116) [nM]	IC50 (T-84) [nM]	IC50 (H358) [nM]	IC50 (H2122) [nM]	IC50 (H460) [nM]	IC50 (A549) [nM]	IC50 (Calu6) [nM]	IC50 (MiaPaca2) [nM]	IC50 (CaPan2) [nM]	IC50 (CFPAC-1) [nM]	IC50 (PANC-1) [nM]	IC50 (SW1990) [nM]	IC50 (HCC1806) [nM]	IC50 (MDA-MB-231) [nM]	IC50 (MDA-MB-361) [nM]	IC50 (UACC-893) [nM]	IC50 (MDA-MB-453) [nM]	also measured
COc1ccc(-c2nc(N3CCOCC3)c3sc(CN(C)c4ncc(C(=O)NO)cn4)cc3n2)cn1 [Compound 1, N-hydroxy-2-(((2-(6-methoxypyridin-3-yl)-4-morpholinothieno[3,2-d]pyrimidin-6-yl)methyl)(methyl)amino)pyrimidine-5-carboxamide]	10 to 100	< 10	< 10	< 10	10 to 100	< 10	< 10	10 to 100	10 to 100	10 to 100	10 to 100	10 to 100	10 to 100	10 to 100	< 10	10 to 100	10 to 100	< 10	10 to 100	< 10	IC50 (MCF-7): < 10 nM; IC50 (T47D): 10 to 100 nM; IC50 (ZR-75-1): 10 to 100 nM; IC50 (MDA-MB-468): 10 to 100 nM; IC50 (HL-60): < 10 nM; IC50 (U937): < 10 nM; IC50 (THP-1): 10 to 100 nM; IC50 (MV-4-11): < 10 nM; IC50 (Raji): 10 to 100 nM; IC50 (DOHH2): < 10 nM; IC50 (Su-DHL4): < 10 nM; IC50 (Daudi): 10 to 100 nM; IC50 (HH): < 10 nM; IC50 (MJ): < 10 nM; IC50 (K562): 10 to 100 nM; IC50 (RPMI-8226): < 10 nM; IC50 (OPM-2): < 10 nM; IC50 (ARH77): < 10 nM
CS(=O)(=O)N1CCN(Cc2cc3nc(-c4cccc5[nH]ncc45)nc(N4CCOCC4)c3s2)CC1 [GDC-0941, reference compound]	> 10000	> 10000	> 10000	> 10000	1000 to 10000	1000 to 10000	1000 to 10000	> 10000	1000 to 10000	> 10000	> 10000	> 10000	> 10000	1000 to 10000	> 10000	> 10000	> 10000	100 to 1000	1000 to 10000	100 to 1000	IC50 (MCF-7): 100 to 1000 nM; IC50 (T47D): > 10000 nM; IC50 (ZR-75-1): 100 to 1000 nM; IC50 (MDA-MB-468): 100 to 1000 nM; IC50 (HL-60): 100 to 1000 nM; IC50 (U937): 1000 to 10000 nM; IC50 (THP-1): 1000 to 10000 nM; IC50 (MV-4-11): 1000 to 10000 nM; IC50 (Raji): > 10000 nM; IC50 (DOHH2): 10 to 100 nM; IC50 (Su-DHL4): 100 to 1000 nM; IC50 (Daudi): > 10000 nM; IC50 (HH): 100 to 1000 nM; IC50 (MJ): > 10000 nM; IC50 (K562): 1000 to 10000 nM; IC50 (RPMI-8226): > 10000 nM; IC50 (OPM-2): 10 to 100 nM; IC50 (ARH77): > 10000 nM
